Reference: US20130116554A1, “X-RAY IMAGING AT LOW CONTRAST AGENT CONCENTRATIONS AND/OR LOW DOSE RADIATION” (priority 2010, published 2013)

Tests used:
[1] = Abdominal contrast enhanced CT in minipig, arterial phase, SNR of ROI; assay type: in vivo; conditions: for ASiR 60% [SNR] / Veo [SNR]: 80 kVp
Method: (§1) An anaesthetized minipig (abdominal maximum and minimum diameters 36 cm and 20 cm, respectively) was imaged 3 times (imaging protocols 1, 2 and 3, Tables 3 and 4) on a Discovery CT 750 HD. Visipaque (60 mL) was injected at a rate of 2 mL/s into a jugular vein, followed by a 20 mL saline flush at the same injection rate. There was at least a 2 day washout period between each scanning session.
(§2) Protocol 1 with a Visipaque concentration of 320 mg l/mL and 120 kVp tube voltage represents current standard of care (SoC) imaging for humans. Automated tube current modulation (≦500 mA) was used with a noise index level of 30 and a tube rotation time of 0.7 s. Post-contrast CT images were acquired during the arterial phase, the portal venous phase, the venous phase and the late phase. Image reconstruction was done by (1) FBP, (2) ASiR 60% and (3) Veo. Pixel size was 0.703 mm×0.703 mm×0.625 mm.
(§3) Iodine contrast enhancement was assessed by measuring the signal-to-noise ratio (SNR) of circular regions of interest (ROI), see Tables 3 and 4. The SNR is calculated as ratio of mean ROI intensity in HU and standard deviation (SD). ROIs were placed in aorta and muscle (quadratus lumborum) in arterial phase images and in liver in venous phase images.

[2] = Abdominal contrast enhanced CT in minipig, venous phase, SNR of ROI; assay type: in vivo; conditions: liver; for ASiR 60% [SNR] / Veo [SNR]: 80 kVp
Method: as §1, §2, §3

[3] = protocol 1: Visipaque 320 mg I/ml, 120 kVp, CTDIvol 6.7 mGy
[4] = protocol 2: Visipaque 170 mg I/ml, CTDIvol 3.2 mGy
[5] = protocol 3: Visipaque 120 mg I/ml, CTDIvol 6.4 mGy

CC(=O)N(CC(O)CN(C(C)=O)c1c(I)c(C(=O)NCC(O)CO)c(I)c(C(=O)NCC(O)CO)c1I)c1c(I)c(C(=O)NCC(O)CO)c(I)c(C(=O)NCC(O)CO)c1I (stereo not shown) [Visipaque, iodixanol]
FBP [SNR] [1, 3]: 8.3 | ASiR 60% [SNR] [1, 4]: 7.4 | Veo [SNR] [1, 4]: 12.8 | ASiR 60% [SNR] [1, 5]: 8.5 | Veo [SNR] [1, 5]: 14.2 | FBP [SNR] [2, 3]: 4.3 | ASiR 60% [SNR] [2, 4]: 3.5 | Veo [SNR] [2, 4]: 8.1 | ASiR 60% [SNR] [2, 5]: 4.7 | Veo [SNR] [2, 5]: 8.1
